Measured values from US20240270809A1, “ORAL GLP RECEPTOR AGONISTS” (priority 2020, published 2024).
Positions of bridges follow the written chain, without caps; N, C: chain ends. Non-standard residues stand in square brackets, D forms with d. Residues, ends and D or L forms follow the SMILES beside them. *: point of attachment. Malonyl(2,2-Me2,histaminyl) = CC(C)(C(=O)NCCc1cnc[nH]1)C(=O)*; Ala(1H-tetrazol-5-yl) = N[C@@H](Cc1nnn[nH]1)C(=O)O; αMeL = CC(C)C[C@](C)(N)C(=O)O; Nle = CCCC[C@H](N)C(=O)O; Aib = CC(C)(N)C(=O)O

Key:
Format in all cases: cell-based
human GLP1 receptor = target: T1, human GLP1 receptor (Homo sapiens, UniProt P43220); assay: cAMP accumulation assay, functional agonism of human GLP1 receptor; conditions: HEK cells infected with human GLP1 receptor BacMam virus, HTRF cAMP; for Emax: HEK293, read-out: Human GLP-1R agonist cAMP Emax; for EC50: read-out: Human GLP-1R agonist cAMP pEC50 (converted)
T1 construct: expressed in transfected cells; host or cells: HEK cells, BacMam virus transduction
Outline: (§1)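 HEK cells transduced 24 h with human GLP1 or GLP2 receptor BacMam virus, then frozen until use. Agonist stimulation for 45 min at 37 °C in HBSS with 0.5 mM IBMX; cAMP measured by HTRF after lysis.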

human GLP2 receptor = target: T2, human GLP2 receptor (Homo sapiens, UniProt O95838); assay: cAMP accumulation assay, functional agonism of human GLP2 receptor; conditions: HEK cells infected with human GLP2 receptor BacMam virus, HTRF cAMP; for Emax: HEK293, read-out: Human GLP-2R agonist cAMP Emax; for EC50: read-out: Human GLP-2R agonist cAMP pEC50 (converted)
T2 construct: expressed in transfected cells; host or cells: HEK cells, BacMam virus transduction
T2 sequence (O95838 1-553): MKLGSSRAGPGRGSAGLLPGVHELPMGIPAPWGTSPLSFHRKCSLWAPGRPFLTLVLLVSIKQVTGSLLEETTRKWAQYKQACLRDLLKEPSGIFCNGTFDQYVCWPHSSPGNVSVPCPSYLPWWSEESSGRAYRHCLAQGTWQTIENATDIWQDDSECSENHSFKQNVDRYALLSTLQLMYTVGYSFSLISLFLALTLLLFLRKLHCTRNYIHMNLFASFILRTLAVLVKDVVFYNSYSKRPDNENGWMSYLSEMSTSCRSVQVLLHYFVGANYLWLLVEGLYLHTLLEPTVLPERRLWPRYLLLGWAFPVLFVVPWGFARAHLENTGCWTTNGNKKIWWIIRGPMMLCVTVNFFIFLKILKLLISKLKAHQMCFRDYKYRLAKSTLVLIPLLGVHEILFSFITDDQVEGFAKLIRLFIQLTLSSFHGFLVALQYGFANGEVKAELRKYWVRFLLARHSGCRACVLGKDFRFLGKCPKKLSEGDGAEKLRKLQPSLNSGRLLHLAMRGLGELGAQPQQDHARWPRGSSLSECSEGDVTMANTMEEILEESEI
Outline: as §1

mouse GLP1 receptor = target: T3, mouse GLP1 receptor (Mus musculus, UniProt O35659); assay: cAMP accumulation assay, functional agonism of mouse GLP1 receptor; conditions: HEK cells transiently transfected with mouse GLP1 receptor, HTRF cAMP; for Emax: HEK293, read-out: Mouse GLP-1R agonist cAMP Emax; for EC50: read-out: Mouse GLP-1R agonist cAMP pEC50 (converted)
T3 construct: expressed in transfected cells; host or cells: HEK cells, transient transfection with GeneJuice
T3 sequence (O35659 22-463): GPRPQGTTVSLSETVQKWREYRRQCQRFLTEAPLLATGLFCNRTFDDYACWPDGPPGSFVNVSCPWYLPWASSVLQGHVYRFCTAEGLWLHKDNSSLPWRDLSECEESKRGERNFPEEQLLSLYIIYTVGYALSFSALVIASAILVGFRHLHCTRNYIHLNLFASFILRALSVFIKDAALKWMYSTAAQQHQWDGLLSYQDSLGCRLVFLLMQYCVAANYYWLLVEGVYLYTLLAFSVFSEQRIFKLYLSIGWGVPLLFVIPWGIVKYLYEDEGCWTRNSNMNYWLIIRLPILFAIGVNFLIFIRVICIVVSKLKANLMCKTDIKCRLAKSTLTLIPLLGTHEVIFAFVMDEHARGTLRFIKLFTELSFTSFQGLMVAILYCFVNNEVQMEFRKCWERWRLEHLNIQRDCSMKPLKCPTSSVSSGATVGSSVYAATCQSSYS
Procedure: CAMP production upon agonist stimulation of mouse GLP2 or GLP1 receptors was assessed utilizing HiRange cAMP kit (Cisbio). In brief, HEK cells were transiently transfected for 24 hours with cDNA using GeneJuice Transfection reagent (EMD Millipore) and frozen at −80° C. for later use in the assay. […] Cells were prepared in the assay buffer (HBSS (Lonza) supplemented with 0.5 mM IBMX (Tocris)). After 45 min incubation at 37° C., the reaction was stopped by addition of the HTRF detection reagents in the lysis buffer provided in the kit. Following 1-hour incubation at RT, plates were read on Pherastar FS (BMG Labtech, Inc.) using standard HTRF settings. Dotmatics Studies software was used for calculation of pEC50 values by fitting data to a four-parameter concentration response curve.

mouse GLP2 receptor = target: T4, mouse GLP2 receptor (Mus musculus, UniProt Q5IXF8); assay: cAMP accumulation assay, functional agonism of mouse GLP2 receptor; conditions: HEK cells transiently transfected with mouse GLP2 receptor, HTRF cAMP; for Emax: HEK293, read-out: Mouse GLP-2R agonist cAMP Emax; for EC50: read-out: Mouse GLP-2R agonist cAMP pEC50 (converted)
T4 construct: expressed in transfected cells; host or cells: HEK cells, transient transfection with GeneJuice
T4 sequence (Q5IXF8 1-512): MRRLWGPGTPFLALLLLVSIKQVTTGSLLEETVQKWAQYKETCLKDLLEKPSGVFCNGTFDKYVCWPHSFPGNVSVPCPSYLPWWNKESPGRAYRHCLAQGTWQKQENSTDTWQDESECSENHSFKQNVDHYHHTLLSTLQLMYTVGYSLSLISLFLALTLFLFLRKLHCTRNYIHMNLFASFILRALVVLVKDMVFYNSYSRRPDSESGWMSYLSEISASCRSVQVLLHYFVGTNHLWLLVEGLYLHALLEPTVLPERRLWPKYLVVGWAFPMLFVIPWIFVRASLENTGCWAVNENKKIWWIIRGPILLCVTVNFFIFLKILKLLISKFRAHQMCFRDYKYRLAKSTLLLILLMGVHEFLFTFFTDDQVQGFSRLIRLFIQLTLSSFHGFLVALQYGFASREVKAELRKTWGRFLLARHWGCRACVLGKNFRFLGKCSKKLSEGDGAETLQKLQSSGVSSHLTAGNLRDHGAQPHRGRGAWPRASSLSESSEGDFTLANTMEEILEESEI
Outline: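 Transiently transfected HEK cells (24 h, frozen, 8000/well) in HBSS with 0.5 mM IBMX exposed to compound concentration series for 45 min at 37 °C. cAMP measured by HTRF after lysis and 1 h at RT; pEC50 from four-parameter concentration-response fit.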

T1 sequence (P43220 24-463): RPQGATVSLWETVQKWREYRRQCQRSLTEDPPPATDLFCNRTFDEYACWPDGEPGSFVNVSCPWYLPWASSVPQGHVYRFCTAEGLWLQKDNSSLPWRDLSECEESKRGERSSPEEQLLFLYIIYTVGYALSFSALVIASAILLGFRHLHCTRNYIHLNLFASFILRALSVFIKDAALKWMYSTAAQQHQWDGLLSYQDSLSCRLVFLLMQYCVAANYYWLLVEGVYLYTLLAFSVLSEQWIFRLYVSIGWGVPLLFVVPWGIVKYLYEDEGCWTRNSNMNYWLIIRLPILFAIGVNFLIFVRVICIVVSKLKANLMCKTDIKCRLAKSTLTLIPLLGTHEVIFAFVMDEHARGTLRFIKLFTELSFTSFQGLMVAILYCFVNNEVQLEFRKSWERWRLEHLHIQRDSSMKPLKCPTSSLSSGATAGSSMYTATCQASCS

Work on `CCCC[C@H](NC(=O)[C@H](CCC(=O)O)NC(=O)[C@H](CC(=O)O)NC(=O)[C@H](CO)NC(=O)[C@H](Cc1ccccc1)NC(=O)[C@H](CO)NC(=O)CNC(=O)[C@H](CC(=O)O)NC(=O)C(C)(C)NC(=O)[C@@H](N)Cc1c[nH]cn1)C(=O)N[C@H](Cc1ccccc1)C(=O)N[C@H](C(=O)N[C@H](C(=O)N[C@@H](CC(C)C)C(=O)N[C@@H](CC(=O)O)C(=O)N[C@H]1CC(=O)NCCCC[C@@H](C(=O)N[C@@H](CC(=O)O)C(=O)N[C@@H](Cc2ccccc2)C(=O)N[C@H](C(=O)N[C@@H](CC(N)=O)C(=O)N[C@@H](Cc2c[nH]c3ccccc23)C(=O)N[C@@H](CC(C)C)C(=O)N[C@H](C(=O)N[C@@H](CCC(N)=O)C(=O)N[C@H](C(=O)N[C@@H](CCCCN)C(=O)N[C@H](C(=O)N[C@H](C(=O)N[C@@H](CC(=O)O)C(N)=O)[C@@H](C)O)[C@@H](C)CC)[C@@H](C)O)[C@@H](C)CC)[C@@H](C)CC)NC(=O)[C@H](C)NC(=O)[C@H](C)NC(=O)[C@H](CCCCN)NC1=O)[C@@H](C)CC)[C@@H](C)O` [Example 92] (H-H[Aib]DGSFSDE[Nle][dF]TILDDKAAKDFINWLIQTKITD-NH2; lactam 16-20; N-terminus and C-terminus assumed) yielded an Emax (human GLP1 receptor) of 96.5%, an EC50 (human GLP1 receptor) of 10 nM and an Emax (human GLP2 receptor) of 99.3%. For the same molecule, the EC50 (human GLP2 receptor) was 0.002 nM, the Emax (mouse GLP1 receptor) was 94.8% and the EC50 (mouse GLP1 receptor) was 10 nM. The Emax (mouse GLP2 receptor) was 98.9% and the EC50 (mouse GLP2 receptor) was 0.0126 nM.

`CCCC[C@H](NC(=O)[C@H](CCC(=O)O)NC(=O)[C@H](CC(=O)O)NC(=O)[C@H](CO)NC(=O)[C@H](Cc1ccccc1)NC(=O)[C@H](CO)NC(=O)[C@@H](C)NC(=O)[C@H](Cc1nn[nH]n1)NC(=O)C(C)(C)C(=O)NCCc1c[nH]cn1)C(=O)N[C@H](Cc1ccccc1)C(=O)N[C@H](C(=O)N[C@@](C)(CC(C)C)C(=O)N[C@@H](CC(C)C)C(=O)N[C@@H](CC(=O)O)C(=O)N[C@H]1CCC(=O)NCCCC[C@@H](C(=O)N[C@@H](CC(=O)O)C(=O)N[C@@H](Cc2ccccc2)C(=O)N[C@H](C(=O)N[C@H]2CCC(=O)NCCCC[C@@H](C(=O)N[C@H](C(=O)N[C@@H](CCCCN)C(=O)N[C@H](C(=O)N[C@H](C(=O)N[C@@H](Cc3ccccc3)C(N)=O)[C@@H](C)O)[C@@H](C)CC)[C@@H](C)O)NC(=O)[C@H]([C@@H](C)CC)NC(=O)[C@H](CC(C)C)NC(=O)[C@H](Cc3c[nH]c4ccccc34)NC2=O)[C@@H](C)CC)NC(=O)[C@H](C)NC(=O)[C@H](C)NC(=O)[C@H](CCCCN)NC1=O)[C@@H](C)O` [Example 116] ({Malonyl(2,2-Me2,histaminyl)}-[Ala(1H-tetrazol-5-yl)][dA]SFSDE[Nle][dF]T[αMeL]LDEKAAKDFIEWLIKTKITF-NH2; lactam 14-18, 22-26 (inferred); C-terminus assumed) showed an Emax (human GLP1 receptor) of 94.4%, an EC50 (human GLP1 receptor) of 0.316 nM and an Emax (human GLP2 receptor) of 103%. For the same molecule, the EC50 (human GLP2 receptor) was 0.00794 nM, the Emax (mouse GLP1 receptor) was 95.5% and the EC50 (mouse GLP1 receptor) was 0.2 nM. For the same molecule, the Emax (mouse GLP2 receptor) was 99.9% and the EC50 (mouse GLP2 receptor) was 0.316 nM.
